Laboratory results from patent US11965161B2, “Methods and compositions for sensitization of tumor cells to immune therapy” (Regeneron Pharmaceuticals, Inc., priority 2020, dated 2024).
Entries after “also recorded” stand apart in the source; their conditions may differ. Residues, ends and D or L forms follow the SMILES beside them. *: point of attachment. Cbz = O=C(OCc1ccccc1)*; CH2F = FC*

Columns and labels:
[1] = system: MC38 cells; experiment: TNFα-induced killing of MC38 cells, cell viability (CCK-8); format: cell-based, mouse; settings: for TNFα-mediated killing in Rb1cc1 KO cells: Rb1cc1 KO MC38 cells, 25 μM z-VAD-FMK or 50 μM Nec-1
Method: (§1) The effects of TNFα, TRAIL, doxorubicin or paclitaxel on cell viability were assessed following 24 hour incubations at the indicated concentrations. The effects of 5 μM autophinib or SAR-405 on TNFα (10 ng/ml) or TRAIL (10 ng/ml or 50 ng/ml) induced killing were assessed following 24 hour incubations unless otherwise indicated. In all cases, cell viability was measured using CCK8 cell counting kit-8 (CCK-8) reagent, which is reduced by dehydrogenase activities in cells to give a yellow-colored formazan dye (Dojindo). The absorbance was measured using a SpectraMax M3 microplate reader (Molecular Devices).

[2] = system: multiple mouse and human cancer cell lines; experiment: TNFα-mediated killing in a panel of cancer cell lines with or without autophagy inhibitor; format: cell-based; settings: 10 ng/ml TNFα, 5 μM inhibitor, 24 hours, EMT6, LL/2, CT26, Colon26, BT-20, Me-180, MDA-MB-361, ZR-75-1
Method: as §1

[3] = system: ZR-75-1 human breast cancer cells; experiment: Western blots of ZR-75-1 cells (p62, caspase-8); format: cell-based; settings: 5 μM inhibitor, 16 hours; for p62 levels: ZR-75-1 cells; for TNFα-induced activation of caspase-8: human breast cancer cells ZR-75-1, 10 ng/ml TNFα
Method: (§2) Whole cell lysates were prepared in tris-glycine SDS sample buffer (ThermoFisher) containing 5% 2-mercaptoethanol. Western blotting was performed by conventional techniques using tris-glycine polyacrylamide SDS gels (ThermoFisher) and PVDF membranes (BioRad). Blots were blocked in 5% milk powder and 0.5% Tween-20 in TBS and then incubated overnight with primary antibodies. After addition of secondary antibodies, membranes were incubated with SuperSignal West Pico Plus or Femto substrate (ThermoFisher) and luminescence was captured with a C300 imager (Azure Biosystems). Primary antibodies against TAK1, Rbck1, Re1A p65, Rb1cc1, Atg12, cleaved caspase-8, procaspase-8, RIPK1, RIPK1 phospo-Ser321, RIPK1 phospho-Ser166, Iκ-Bα, A20, p62, phospho-p65, LC3B, TNFR1 (CST), Atg9a (Novus), cIAP1 (Enzo), β2M (ThermoFisher), FADD and ICAM (Abcam) were used. Horseradish peroxidase-conjugated β-Actin antibody and secondary antibodies against mouse IgG, rabbit IgG and goat IgG were from Santa Cruz Biotechnology.

[4] = system: ZR-75-1 human breast cancer cells; experiment: CD3 bispecific antibody-induced killing of ZR-75-1 cells by human T cells; format: cell-based; settings: 12 ng/ml bispecific antibody, 5 μM SAR-405, 24 hours
Text: CD8^+ T cells were isolated from spleens and lymph nodes of 6-8 week old male OT-1 mice. These mice contain transgenic inserts for mouse Tcra-V2 and Tcrb-V5 genes. The transgenic T cell receptor was designed to recognize ovalbumin peptide residues 257-264 in the context of H-2Kb MHC class I protein. In some experiments, human CD8+ T cells were isolated from PBMCs. T cells were activated in vitro with CD3/CD28 beads at a 1:2 bead:cell ratio for 2-3 days. T cells were activated in RPMI-1640 medium containing 20 ng/ml mouse IL-2, 10% heat inactivated fetal bovine serum, 20 mM HEPES, 2 mM L-glutamine, 1 mM sodium pyruvate, 0.05 mM 2-mercaptoethanol and 50 U/ml penicillin/streptomycin. For human tumor cell killing experiments using CD3 bispecific antibody, human T cells were isolated from peripheral blood mononuclear cells (PBMCs) (ReachBio) using Dynabeads Untouched Human T Cells Kit (Thermo Fisher Scientific).
Human ZR-75-1 cells were seeded at 100,000 cells per 24 well. After 24 hours, cells were incubated with activated CD8^+ T cells (isolated from human PBMCs) at the indicated E:T ratios for 24 hours in the presence of 12 ng/ml breast tumor antigen×CD3 or control (doesn't bind to ZR-75-1 cells) bispecific antibodies in the absence or presence of 5 μM autophagy inhibitor SAR-405.

[5] = system: MC38 cells; experiment: Western blots of MC38 cell lysates (caspase-8, p62, Iκ-Bα, phospho-S6); format: cell-based, mouse; settings: 5 μM autophinib
Method: as §2

[6] = system: HCT-116 and HeLa human cancer cells; experiment: Western blots of HCT-116 and HeLa cells after TRAIL with or without autophinib; format: cell-based; settings: human cancer cells (HCT-116, HeLa), 10 or 50 ng/ml TRAIL, 24 hours
Method: as §2

[7] = system: HCT-116 and HeLa human cancer cells; experiment: TNFα- and TRAIL-mediated killing of human cancer cells with or without autophinib, cell viability; format: cell-based; settings: 5 μM autophinib, 24 hours
Method: as §1

[8] = system: CT26, B16F10, 4T1, EMT6, MC38 tumor cell lines; experiment: TNFα-induced caspase-8 activation and apoptosis in a panel of tumor cell lines; format: cell-based, mouse; settings: 24 hours
Method: as §1
Whole cell lysates were prepared in tris-glycine SDS sample buffer (ThermoFisher) containing 5% 2-mercaptoethanol. Western blotting was performed by conventional techniques using tris-glycine polyacrylamide SDS gels (ThermoFisher) and PVDF membranes (BioRad). Blots were blocked in 5% milk powder and 0.5% Tween-20 in TBS and then incubated overnight with primary antibodies. After addition of secondary antibodies, membranes were incubated with SuperSignal West Pico Plus or Femto substrate (ThermoFisher) and luminescence was captured with a C300 imager (Azure Biosystems). […]

CN1C(=O)C(Cc2c[nH]c3ccccc23)NC1=S (stereo not drawn) [necropsis inhibitor]
TNFα-mediated killing in Rb1cc1 KO cells ([1]; 24 hours): had no effect

C[C@@H]1COCCN1c1cc(=O)n2c(n1)N(Cc1cncc(Cl)c1)[C@H](C(F)(F)F)CC2 [SAR405]
killing by TNFα in multiple mouse and human cancer cell lines [2]: significantly increased | killing by TNFα in multiple mouse and human cancer cell lines ([2]; listed as SAR-405): sensitizes | p62 levels [3]: significantly increased | TNFα-induced activation of caspase-8 [3]: enhanced | tumor cell killing by human T cells with breast tumor antigen×CD3 bispecific antibody [4]: significantly increased

COC(=O)C[C@H](NC(=O)[C@H](C)NC(=O)[C@@H](NC(=O)OCc1ccccc1)C(C)C)C(=O)CF [z-VAD-FMK] (Cbz-Val-Ala-Asp(OMe)-CH2F)
TNFα killing of MC38 cells in presence of caspase inhibitor ([1]; 25 μM z-VAD-FMK, 10 ng/ml TNFα, 24 hours): blocked | TNFα-mediated killing in Rb1cc1 KO cells ([1]; 24 hours): blocked

Cc1cc(Nc2cc(Cl)nc(Oc3ccc([N+](=O)[O-])cc3)n2)n[nH]1 [autophinib]
TNFα-mediated killing (relative cell viability) ([1]; MC38 cells, 10 ng/ml TNFα, 5 μM autophinib, 16 hours): increased | TNFα-mediated degradation of Iκ-Bα ([5]; 10 ng/ml TNFα 30 minutes): did not affect | TNFα-mediated caspase-8 activation ([5]; 10 ng/ml TNFα 4 hours): increased | levels of p62 ([5]; 4 hours): significantly increased | killing by TNFα in multiple mouse and human cancer cell lines [2]: significantly increased; also recorded: sensitizes | p62 levels [3]: significantly increased | TNFα-induced activation of caspase-8 [3]: enhanced | activation of caspase-8 by TRAIL [6]: increased | sensitization to TNFα- and TRAIL-mediated killing ([7]; HCT-116 (10 ng/ml TNFα or TRAIL), HeLa (50 ng/ml TRAIL)): sensitizes | induction of apoptosis by TRAIL ([7]; human cancer cells (HCT-116, HeLa), 10 or 50 ng/ml TRAIL): increased

B1: TNFα: Recombinant mouse and human TNFα from PeproTech (protein)
chain: LRSSSQNSSDKPVAHVVANHQVEEQLEWLSQRANALLANGMDLKDNQLVVPADGLYLVYSQVLFKGQGCPDYVLLTHTVSRFAISYQEKVNLLSAVKSPCPKDTPEGAELKPWYEPIYLGGVFQLEKGDQLSAEVNLPKYLDFAESGQVYFGVIAL
MC38 cell death by soluble TNFα ([1]; 10 ng/ml TNFα, 24 hours): promoted MC38 cell death | killing by TNFα ([8]; CT26, B16F10, 4T1 cells): not killed | TNFα-induced caspase-8 activation and apoptosis ([8]; EMT6 and MC38 cells): exhibited TNFα-induced caspase-8 activation and apoptosis
